From patent US20260355196A1, “INHIBITORS AND DEGRADERS OF PIP4K PROTEIN” (Larkspur Biosciences, Inc., priority 2023, published 2026)

What follows are molecules tested against T1, PIP4K2C (Homo sapiens, UniProt Q8TBX8) (assay: HiBiT PIP4K2C degradation assay in MOLT-4 cells (endogenous PIP4K2C C-terminally tagged with HiBiT)). Conditions: 6 hours of incubation time, rather than 24 hours; MOLT-4, top concentration 10 micromolar; read-out: HiBIT-degradation MOLT4 PIP4k2C DC50 (6 hours, marked *).
T1 sequence (Q8TBX8 1-421): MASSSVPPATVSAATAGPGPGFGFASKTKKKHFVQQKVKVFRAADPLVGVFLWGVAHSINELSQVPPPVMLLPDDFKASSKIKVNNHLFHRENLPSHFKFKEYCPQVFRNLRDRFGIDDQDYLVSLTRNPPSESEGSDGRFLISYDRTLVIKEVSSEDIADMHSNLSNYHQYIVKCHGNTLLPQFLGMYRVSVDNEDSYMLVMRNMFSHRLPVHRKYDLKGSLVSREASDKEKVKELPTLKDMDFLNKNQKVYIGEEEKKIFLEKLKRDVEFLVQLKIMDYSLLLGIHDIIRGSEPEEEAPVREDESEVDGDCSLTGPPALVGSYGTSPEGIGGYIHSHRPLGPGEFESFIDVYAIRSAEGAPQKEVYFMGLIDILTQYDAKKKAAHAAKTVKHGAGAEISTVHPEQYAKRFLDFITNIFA
Assay type: cell-based
Design: untagged in primary human PBMCs and monocyte-derived dendritic cells
Procedure, shortened: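 Cells are plated onto compound dilutions (10 points, 3-fold, top 10 micromolar) and incubated 24 or 6 hours at 37 C. Lytic HiBiT detection then quantifies tagged endogenous PIP4K2C in MOLT-4, and a Hill fit yields DC50.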

DC50, < 0.5 µM:
O=C1CC[C@@H](Nc2ccc(N3CCC(N4CCC(O)(C(=O)N[C@H]5CC[C@H](Nc6ncc(F)c(-c7cccc(-n8ccccc8=O)c7)n6)CC5)CC4)CC3)c(F)c2)C(=O)N1 (single isomer, unassigned) [Compound 595]
O=C1CCC(Nc2ccc(N3CCC(N4CCN(C(=O)O[C@H]5CC[C@H](Nc6ncc(F)c(-c7cccc(-n8ccccc8=O)c7)n6)CC5)CC4)CC3)c(F)c2)C(=O)N1 (stereo partly drawn) [Compound 698, trans-4-((5-fluoro-4-(3-(2-oxopyridin-1 (2H)-yl)phenyl)pyrimidin-2-yl)amino)cyclohexyl 4-(1-(4-((2,6-dioxopiperidin-3-yl)amino)-2-fluorophenyl)piperidin-4-yl)piperazine-1-carboxylate]
O=C1CCC(Nc2ccc(C3CCN([C@H]4CC[C@H](NC(=O)[C@H]5CC[C@H](Nc6ncc(F)c(-c7cccc(-n8ccccc8=O)c7)n6)CC5)CC4)CC3(F)F)c(F)c2)C(=O)N1 (stereo partly drawn) [Compound 692, trans-N-(trans-4-(4-(4-((2,6-dioxopiperidin-3-yl)amino)-2-fluorophenyl)-3,3-difluoropiperidin-1-yl)cyclohexyl)-4-((5-fluoro-4-(3-(2-oxopyridin-1 (2H)-yl)phenyl)pyrimidin-2-yl)amino)cyclohexane-1-carboxamide]
O=C1CCC(Nc2ccc(N3CCN(CC4CCN(C(=O)[C@H]5CC[C@H](Nc6ncc(F)c(-c7cccc(N8CCOCC8=O)c7)n6)CC5)CC4)CC3)c(F)c2)C(=O)N1 (stereo partly drawn) [Compound 553, trans-3-((3-fluoro-4-(4-((1-(4-((5-fluoro-4-(3-(3-oxomorpholino)phenyl)pyrimidin-2-yl)amino)cyclohexane-1-carbonyl)piperidin-4-yl)methyl)piperazin-1-yl)phenyl)amino)piperidine-2,6-dione]
Cn1nc(C2CCC(=O)NC2=O)c2ccc(C3CCN(CC4CCN(C(=O)O[C@H]5CC[C@H](Nc6ncc(F)c(-c7cccc(-n8ccccc8=O)c7)n6)CC5)CC4)CC3)cc21 (stereo partly drawn) [Compound 467, trans-4-((5-fluoro-4-(3-(2-oxopyridin-1 (2H)-yl)phenyl)pyrimidin-2-yl)amino)cyclohexyl 4-((4-(3-(2,6-dioxopiperidin-3-yl)-1-methyl-1H-indazol-6-yl)piperidin-1-yl)methyl)piperidine-1-carboxylate]
O=C1CCC(Nc2ccc(N3CCC(N4CCC(C(=O)N[C@H]5CC[C@H](Nc6ncc(F)c(-c7cccc(N8CCCCC8)c7)n6)CC5)CC4)C(F)C3)c(F)c2)C(=O)N1 (stereo partly shown) [Compound 523, 1′-(4-((2,6-dioxopiperidin-3-yl)amino)-2-fluorophenyl)-3′-fluoro-N-((1r,4r)-4-((5-fluoro-4-(3-(piperidin-1-yl)phenyl)pyrimidin-2-yl)amino)cyclohexyl)-[1,4′-bipiperidine]-4-carboxamide]
O=C1CCC(Nc2ccc(C3CCN([C@H]4CC[C@H](C(=O)N[C@H]5CC[C@H](Nc6ncc(F)c(-c7cccc(N8CCOC8=O)c7)n6)CC5)CC4)CC3)c(F)c2)C(=O)N1 (stereo partly drawn) [Compound 446, trans-(1r,4R)-4-(4-(4-((2,6-dioxopiperidin-3-yl)amino)-2-fluorophenyl)piperidin-1-yl)-N-((1r,4R)-4-((5-fluoro-4-(3-(2-oxooxazolidin-3-yl)phenyl)pyrimidin-2-yl)amino)cyclohexyl)cyclohexane-1-carboxamide]

Same assay, conditions: 24 hours incubation, MOLT-4, top concentration 10 micromolar; read-out: HiBIT-degradation MOLT4 PIP4k2C 24 hours DC50

DC50, < 0.5 µM:
O=C1CCC(N2Cc3cc(C4CCN(CC5CCN(C(=O)[C@H]6CCC[C@@H](Nc7ncc(Cl)c(-c8cccc(-c9ccccc9)c8)n7)C6)CC5)CC4)ccc3C2=O)C(=O)N1 (relative stereo) [Compound 63, cis-3-(5-(1-((1-(3-((4-([1,1′-biphenyl]-3-yl)-5-chloropyrimidin-2-yl)amino)cyclohexane-1-carbonyl)piperidin-4-yl)methyl)piperidin-4-yl)-1-oxoisoindolin-2-yl)piperidine-2,6-dione]
O=C1CCC(N2Cc3cc(C4CCN(CCN5CCC(C(=O)N6CCC[C@H](Nc7ncc(Cl)c(-c8cccc(-c9ccccc9)c8)n7)C6)CC5)CC4)ccc3C2=O)C(=O)N1 (stereo partly shown) [Compound 78]
O=C1CCC(Nc2ccc(C3CCN(CC4CCN(C(=O)[C@H]5CCC[C@@H](Nc6ncc(Cl)c(-c7cccc(-c8ccccc8)c7)n6)C5)CC4)CC3)cc2)C(=O)N1 (relative stereo) [Compound 65, cis-3-((4-(1-((1-(3-((4-([1,1′-biphenyl]-3-yl)-5-chloropyrimidin-2-yl)amino)cyclohexane-1-carbonyl)piperidin-4-yl)methyl)piperidin-4-yl)phenyl)amino)piperidine-2,6-dione]
O=C1CCC(N2Cc3cc(OC4CCN(C(=O)CN5CCN(C(=O)[C@H]6CCC[C@@H](Nc7ncc(Cl)c(-c8cccc(-c9ccccc9)c8)n7)C6)CC5)CC4)ccc3C2=O)C(=O)N1 (relative stereo) [Compound 82, cis-3-(5-((1-(2-(4-(3-((4-([1,1′-biphenyl]-3-yl)-5-chloropyrimidin-2-yl)amino)cyclohexane-1-carbonyl)piperazin-1-yl)acetyl)piperidin-4-yl)oxy)-1-oxoisoindolin-2-yl)piperidine-2,6-dione]
Cn1c(=O)n(C2CCC(=O)NC2=O)c2ccc(C3CCN(C(=O)CN4CCC(C(=O)N5CCC(Nc6ncc(Cl)c(-c7cccc(-c8ccccc8)c7)n6)CC5)CC4)CC3)cc21 (stereo not shown) [Compound 46, 3-(5-(1-(2-(4-(4-((4-([1,1′-biphenyl]-3-yl)-5-chloropyrimidin-2-yl)amino)piperidine-1-carbonyl)piperidin-1-yl)acetyl)piperidin-4-yl)-3-methyl-2-oxo-2,3-dihydro-1H-benzo[d]imidazol-1-yl)piperidine-2,6-dione]
O=C1CCC(Nc2ccc(C3CCN(CCC4CCN(C(=O)[C@H]5CCC[C@@H](Nc6ncc(Cl)c(-c7cccc(-c8ccccc8)c7)n6)C5)CC4)CC3)cc2)C(=O)N1 (relative stereo) [Compound 64, cis-3-((4-(1-(2-(1-(3-((4-([1,1′-biphenyl]-3-yl)-5-chloropyrimidin-2-yl)amino)cyclohexane-1-carbonyl)piperidin-4-yl)ethyl)piperidin-4-yl)phenyl)amino)piperidine-2,6-dione]
Cn1nc(C2CCC(=O)NC2=O)c2ccc(C3CCN(CCC4CCN(C(=O)[C@H]5CCC[C@@H](Nc6ncc(F)c(-c7cccc(-n8ccccc8=O)c7)n6)C5)CC4)CC3)cc21 (relative stereo) [Compound 298, 3-(6-(1-(2-(1-(cis-3-((5-fluoro-4-(3-(2-oxopyridin-1(2H)-yl)phenyl)pyrimidin-2-yl)amino)cyclohexane-1-carbonyl)piperidin-4-yl)ethyl)piperidin-4-yl)-1-methyl-1H-indazol-3-yl)piperidine-2,6-dione]
O=C1CCC(Nc2ccc(N3CCC(CN4CCN(CC(=O)N[C@H]5CC[C@H](Nc6ncc(F)c(-c7cccc(-n8ccccc8=O)c7)n6)CC5)CC4)CC3)c(F)c2)C(=O)N1 (stereo partly drawn) [Compound 327, trans-2-[4-[[1-[4-[(2,6-dioxo-3-piperidyl)amino]-2-fluoro-phenyl]-4-piperidyl]methyl]piperazin-1-yl]-N-[4-[[5-fluoro-4-[3-(2-oxo-1-pyridyl)phenyl]pyrimidin-2-yl]amino]cyclohexyl]acetamide]

What follows are molecules tested against T1, PIP4K2C (assay: Enzyme Binding Assay (KINOMEscan): active site-directed competition binding to an immobilized ligand). Conditions: 11-point dose response, duplicate, top concentration 5 micromolar; read-out: Pip4k2c Kd: IC50.
Design: purchased Eurofins DiscoverX, San Diego, CA 87-0007-1094
Experimental: Example B-1: Enzyme Binding Assays (KINOMEscan)
PIP4K2C binding constants disclosed herein were determined using the proprietary Human PIP4K2C binding assay (Catalog number 87-0007-1094, Eurofins DiscoverX, San Diego, CA). This assay measures active site-directed competition binding to an immobilized ligand (see https://doi.org/10.1038/nbt1068, herein incorporated by reference in its entirety). Experiments were conducted using an 11-point dose response curve, in duplicate, with a top starting concentration of 5 micromolar; the Levenberg-Marquardt algorithm was used to fit a Hill equation to dose-response data to calculate IC50 values (see Table 5).

IC50, < 0.5 µM:
CC(=O)N1CCC(Nc2ncc(F)c(-c3cccc(-c4ccc(=O)[nH]c4)c3)n2)CC1 [Compound 202, 5-(3-(2-((1-acetylpiperidin-4-yl)amino)-5-fluoropyrimidin-4-yl)phenyl)pyridin-2(1H)-one]
NC(=O)[C@H]1CCC[C@@H](Nc2ncc(F)c(-c3cccc(-c4ccc(=O)[nH]c4)c3)n2)C1 (racemic) [Compound 201, cis-3-((5-fluoro-4-(3-(6-oxo-1,6-dihydropyridin-3-yl)phenyl)pyrimidin-2-yl)amino)cyclohexane-1-carboxamide]
CC(=O)N1CCC[C@H](Nc2ncc(Cl)c(-c3cccc(-c4ccccc4)c3)n2)C1 [Compound 18, (S)-1-(3-((4-([1,1′-biphenyl]-3-yl)-5-chloropyrimidin-2-yl)amino)piperidin-1-yl)ethan-1-one]
NC(=O)[C@H]1CC[C@H](Nc2ncc(F)c(-c3cccc(C4COC4)c3)n2)CC1 [Compound 180, trans-4-((5-fluoro-4-(3-(oxetan-3-yl)phenyl)pyrimidin-2-yl)amino)cyclohexane-1-carboxamide]
